Source: publication PMC3739791, “Sonic Hedgehog-Induced Histone Deacetylase Activation Is Required for Cerebellar Granule Precursor Hyperplasia in Medulloblastoma” (PLoS ONE, 2013)

Target: T1, HDAC6 (Mus musculus, UniProt Q9Z2V5)
T1 sequence (Q9Z2V5 1-1149): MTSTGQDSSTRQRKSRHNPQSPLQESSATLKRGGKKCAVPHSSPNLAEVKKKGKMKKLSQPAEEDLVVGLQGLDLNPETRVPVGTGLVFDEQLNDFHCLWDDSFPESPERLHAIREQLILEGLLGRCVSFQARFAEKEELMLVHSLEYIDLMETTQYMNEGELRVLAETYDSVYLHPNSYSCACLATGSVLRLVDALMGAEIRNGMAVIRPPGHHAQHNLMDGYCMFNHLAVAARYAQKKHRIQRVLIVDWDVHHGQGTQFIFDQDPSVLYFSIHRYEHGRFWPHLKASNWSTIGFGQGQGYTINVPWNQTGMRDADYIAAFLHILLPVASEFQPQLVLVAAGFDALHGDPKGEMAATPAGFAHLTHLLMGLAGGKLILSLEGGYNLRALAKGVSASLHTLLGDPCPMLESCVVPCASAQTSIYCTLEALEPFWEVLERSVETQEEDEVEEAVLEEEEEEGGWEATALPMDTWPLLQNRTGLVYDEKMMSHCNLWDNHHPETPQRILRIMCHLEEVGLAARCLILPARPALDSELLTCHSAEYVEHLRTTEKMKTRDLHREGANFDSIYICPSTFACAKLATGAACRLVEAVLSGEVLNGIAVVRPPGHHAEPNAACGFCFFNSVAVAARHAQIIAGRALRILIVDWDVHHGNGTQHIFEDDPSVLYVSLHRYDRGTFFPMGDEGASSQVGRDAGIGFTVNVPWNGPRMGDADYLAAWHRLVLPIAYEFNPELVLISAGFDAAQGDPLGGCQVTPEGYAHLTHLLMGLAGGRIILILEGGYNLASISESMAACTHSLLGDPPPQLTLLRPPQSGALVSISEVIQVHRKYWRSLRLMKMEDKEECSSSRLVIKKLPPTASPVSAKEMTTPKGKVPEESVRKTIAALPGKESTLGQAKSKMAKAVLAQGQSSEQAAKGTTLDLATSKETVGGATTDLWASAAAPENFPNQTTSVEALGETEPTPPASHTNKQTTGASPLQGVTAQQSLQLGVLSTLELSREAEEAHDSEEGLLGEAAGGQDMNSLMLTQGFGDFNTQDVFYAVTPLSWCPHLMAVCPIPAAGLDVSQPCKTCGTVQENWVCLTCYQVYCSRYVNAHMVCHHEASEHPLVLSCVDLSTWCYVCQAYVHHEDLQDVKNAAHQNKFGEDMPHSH
Experiment: acetylated tubulin immunohistochemistry in brain sections of treated Smo/Smo mice (readout of HDAC6 inhibition in vivo)
Type: cell-based

## CN1CCc2c(c3ccccc3n2Cc2ccc(C(=O)NO)cc2)C1 [Tubastatin A]
  acetylated tubulin immunohistochemistry in brain sections of treated Smo/Smo mic: although tubulin acetylation as a measure for HDAC6 inhibition was increased (Fig. S4)
